Experimental data as given in ChEMBL document CHEMBL3885881, “DrugMatrix”.

Species: Rattus norvegicus
Test: DrugMatrix - Regimen: Daily Repeat
Type: toxicity, organism-based, Sprague-Dawley
Parameters: regimen Daily Repeat, gender Male, age 6-8 weeks
Conditions: in vivo, po, route oral GAVAGE, vehicle 100 % WATER; for BASOPHIL / EOSINOPHIL / ERYTHROCYTE COUNT / HEMATOCRIT / HEMOGLOBIN / LEUKOCYTE COUNT / LYMPHOCYTE / MEAN CORPUSCULAR HEMOGLOBIN / MEAN CORPUSCULAR HEMOGLOBIN CONCENTRATION / MEAN CORPUSCULAR VOLUME / MONOCYTE / NEUTROPHIL / PLATELET COUNT: tissue Blood; for ALANINE AMINOTRANSFERASE / ALBUMIN / ALKALINE PHOSPHATASE / ASPARTATE AMINOTRANSFERASE / BLOOD UREA NITROGEN / CHLORIDE / CHOLESTEROL / CREATINE PHOSPHOKINASE / CREATININE / GLUCOSE / PHOSPHORUS / POTASSIUM / SODIUM / TOTAL BILIRUBIN / TOTAL PROTEIN: tissue Plasma
[1] = 0 mg/kg, 72 h, dose level Control, time 3 day
[2] = 0 mg/kg, 120 h, dose level Control, time 5 day
[3] = 53.5 mg/kg, 72 h, dose level Low, time 3 day

Q: What does the source list for `CN1C(=O)OC(C)(C)C1=O` [TRIMETHADIONE]?
A: BASOPHIL [1]: 0%; EOSINOPHIL [1]: 0.5%; ERYTHROCYTE COUNT [1]: 5.8 x10E6/uL; HEMATOCRIT [1]: 35.07%; HEMOGLOBIN [1]: 14.12 G/DL; LEUKOCYTE COUNT [1]: 13.7 x10E3/uL; LYMPHOCYTE [1]: 82.33%; MEAN CORPUSCULAR HEMOGLOBIN [1]: 24.38 pg; MEAN CORPUSCULAR HEMOGLOBIN CONCENTRATION [1]: 40.28 G/DL; MEAN CORPUSCULAR VOLUME [1]: 60.52 fL; MONOCYTE [1]: 2.67%; NEUTROPHIL [1]: 14.5%; PLATELET COUNT [1]: 911.5 x10E3/uL; ALANINE AMINOTRANSFERASE [1]: 36.83 u/L; ALBUMIN [1]: 3.75 G/DL; ALKALINE PHOSPHATASE [1]: 399.83 u/L; ASPARTATE AMINOTRANSFERASE [1]: 66 u/L; BLOOD UREA NITROGEN [1]: 14.67 mg/dL; CHLORIDE [1]: 101.67 MEQ/L; CHOLESTEROL [1]: 66.33 mg/dL; CREATINE PHOSPHOKINASE [1]: 139.5 u/L; CREATININE [1]: 0.92 mg/dL; GLUCOSE [1]: 175 mg/dL; PHOSPHORUS [1]: 11.42 mg/dL; POTASSIUM [1]: 7.03 MEQ/L; SODIUM [1]: 148.5 MEQ/L; TOTAL BILIRUBIN [1]: 1.13 mg/dL; TOTAL PROTEIN [1]: 6.87 G/DL; BASOPHIL [2]: 0%; EOSINOPHIL [2]: 0.2%; ERYTHROCYTE COUNT [2]: 6.02 x10E6/uL; HEMATOCRIT [2]: 36.48%; HEMOGLOBIN [2]: 14.38 G/DL; LEUKOCYTE COUNT [2]: 12.34 x10E3/uL; LYMPHOCYTE [2]: 83%; MEAN CORPUSCULAR HEMOGLOBIN [2]: 23.92 pg; MEAN CORPUSCULAR HEMOGLOBIN CONCENTRATION [2]: 39.44 G/DL; MEAN CORPUSCULAR VOLUME [2]: 60.66 fL; MONOCYTE [2]: 3%; NEUTROPHIL [2]: 13.8%; PLATELET COUNT [2]: 1190.6 x10E3/uL; ALANINE AMINOTRANSFERASE [2]: 43 u/L; ALBUMIN [2]: 3.73 G/DL; ALKALINE PHOSPHATASE [2]: 393 u/L; ASPARTATE AMINOTRANSFERASE [2]: 62.33 u/L; BLOOD UREA NITROGEN [2]: 16.33 mg/dL; CHLORIDE [2]: 101.67 MEQ/L; CHOLESTEROL [2]: 65.5 mg/dL; CREATINE PHOSPHOKINASE [2]: 130.67 u/L; CREATININE [2]: 0.58 mg/dL; GLUCOSE [2]: 180.67 mg/dL; PHOSPHORUS [2]: 11.28 mg/dL; POTASSIUM [2]: 7.05 MEQ/L; SODIUM [2]: 148.17 MEQ/L; TOTAL BILIRUBIN [2]: 0.72 mg/dL; TOTAL PROTEIN [2]: 6.83 G/DL; BASOPHIL [3]: 0%; EOSINOPHIL [3]: 0.5%; ERYTHROCYTE COUNT [3]: 6.33 x10E6/uL; HEMATOCRIT [3]: 38.05%; HEMOGLOBIN [3]: 15.05 G/DL; LEUKOCYTE COUNT [3]: 12.85 x10E3/uL; LYMPHOCYTE [3]: 83.5%; MEAN CORPUSCULAR HEMOGLOBIN [3]: 23.8 pg; MEAN CORPUSCULAR HEMOGLOBIN CONCENTRATION [3]: 39.55 G/DL; MEAN CORPUSCULAR VOLUME [3]: 60.15 fL; MONOCYTE [3]: 3.5%; NEUTROPHIL [3]: 12.5%; PLATELET COUNT [3]: 1304.5 x10E3/uL; ALANINE AMINOTRANSFERASE [3]: 36.5 u/L; ALBUMIN [3]: 3.7 G/DL; ALKALINE PHOSPHATASE [3]: 313 u/L; ASPARTATE AMINOTRANSFERASE [3]: 61.5 u/L; BLOOD UREA NITROGEN [3]: 12 mg/dL; CHLORIDE [3]: 101 MEQ/L; CHOLESTEROL [3]: 59 mg/dL; CREATINE PHOSPHOKINASE [3]: 136 u/L; CREATININE [3]: 0.55 mg/dL; GLUCOSE [3]: 210.5 mg/dL; PHOSPHORUS [3]: 13 mg/dL; POTASSIUM [3]: 6.85 MEQ/L; SODIUM [3]: 151 MEQ/L; TOTAL BILIRUBIN [3]: 0.35 mg/dL
